Measured values reported in patent US20260285850A1, “SUBSTITUTED OXAZOLIDINONES AND IMIDAZOLINONES AS HERBICIDES” (FMC CORPORATION, priority 2023, published 2026).

Legend:
Assay type in all cases: in vivo
[1] = test system: ryegrass, Italian (italian ryegrass, Lolium multiflorum); assay: Test A preemergence soil spray, visual injury rating 0-100; conditions: 10 days, 0 = no effect, 100 = complete control
In short: (§1)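 Scale 0–100 (no effect to complete control), visual, versus untreated controls, read 10 days after application. Application: preemergence directed spray onto seeded loam–sand soil, or postemergence to young plants; formulation in non-phytotoxic solvent with surfactant.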

[2] = test system: palmer (palmer amaranth, palmer pigweed, Amaranthus palmeri); assay: as above; conditions: 10 days, 0 = no effect, 100 = complete control
In short: as §1

[3] = test system: blackgrass (Alopecurus myosuroides); assay: as above; conditions: 10 days, 0 = no effect, 100 = complete control
In short: as §1

[4] = test system: barnyardgrass (Echinochloa crus-galli); assay: as above; conditions: 10 days, 0 = no effect, 100 = complete control
In short: as §1

soybean (Glycine max) [5] = assay: as above; conditions: 10 days, 0 = no effect, 100 = complete control
In short: as §1

[6] = test system: green foxtail (Setaria viridis); assay: as above; conditions: 10 days, 0 = no effect, 100 = complete control
In short: as §1

kochia (Bassia scoparia) [7] = assay: as above; conditions: 10 days, 0 = no effect, 100 = complete control
In short: as §1

[8] = test system: oat, wild (wild oat, Avena fatua); assay: as above; conditions: 10 days, 0 = no effect, 100 = complete control
In short: as §1

corn (Zea mays) [9] = assay: as above; conditions: 10 days, 0 = no effect, 100 = complete control
In short: as §1

[10] = test system: wheat (Triticum aestivum); assay: as above; conditions: 10 days, 0 = no effect, 100 = complete control
In short: as §1

[11] = test system: ragweed (common ragweed, Ambrosia artemisiifolia); assay: as above; conditions: 10 days, 0 = no effect, 100 = complete control
In short: as §1

[12] = test system: barnyardgrass (Echinochloa crusgalli); assay: Test B flooded paddy test, visual plant response rating 0-100; conditions: 250 g ai/ha, Flood, applied to paddy water, evaluated after 13 days
In short: (§2)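 Each species was raised to two leaves before flooding to a 3 cm depth and dosing the water with compound. Injury was assessed by eye after 13 days under greenhouse conditions.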

[13] = test system: ducksalad (Heteranthera limosa); assay: as above; conditions: 250 g ai/ha, Flood, applied to paddy water, evaluated after 13 days
In short: as §2

rice (Oryza sativa) = assay: as above; conditions: 250 g ai/ha, Flood, applied to paddy water, evaluated after 13 days
In short: as §2

[14] = test system: sedge, umbrella (small-flower umbrella sedge, Cyperus difformis); assay: as above; conditions: 250 g ai/ha, Flood, applied to paddy water, evaluated after 13 days
In short: as §2

[15] = test system: horseweed (Erigeron canadensis); assay: Test A postemergence application, visual injury rating 0-100; conditions: 10 days
In short: as §1

[16] = test system: ryegrass, Italian (italian ryegrass, Lolium multiflorum); assay: as above; conditions: 10 days
In short: as §1

[17] = test system: palmer (palmer amaranth, palmer pigweed, Amaranthus palmeri); assay: as above; conditions: 10 days
In short: as §1

[18] = test system: blackgrass (Alopecurus myosuroides); assay: as above; conditions: 10 days
In short: as §1

[19] = test system: barnyardgrass (Echinochloa crus-galli); assay: as above; conditions: 10 days
In short: as §1

soybean (Glycine max) [20] = assay: as above; conditions: 10 days
In short: as §1

[21] = test system: green foxtail (Setaria viridis); assay: as above; conditions: 10 days
In short: as §1

[22] = test system: galium (catchweed bedstraw, Galium aparine); assay: as above; conditions: 10 days
In short: as §1

kochia (Bassia scoparia) [23] = assay: as above; conditions: 10 days
In short: as §1

[24] = test system: oat, wild (wild oat, Avena fatua); assay: as above; conditions: 10 days
In short: as §1

corn (Zea mays) [25] = assay: as above; conditions: 10 days
In short: as §1

[26] = test system: wheat (Triticum aestivum); assay: as above; conditions: 10 days
In short: as §1

[27] = test system: ragweed (common ragweed, Ambrosia artemisiifolia); assay: as above; conditions: 10 days
In short: as §1

[28] = 31 g ai/ha, postemergence, 0 = no effect, 100 = complete control
[29] = Postemergence, 125 g ai/ha, 0 is no effect, 100 is complete control

CSCCOC(=O)C1=CCC(NC(=O)C2(C)CN(c3cc(F)cc(F)c3)C(=O)O2)C1 (stereo not shown) [Compound 22]
60: Wheat plant response rating (0 to 100 scale) ([10]; 125 g ai/ha) | Ryegrass, Italian plant response rating (0-100) [16, 28] | Blackgrass plant response rating (0-100) [18, 28] | Galium plant response rating (0-100) [22, 28] | Kochia plant response rating (0-100) (kochia (Bassia scoparia) [23]; [28])
70: Ryegrass, Italian plant response rating (0 to 100 scale) [16, 29] | Barnyardgrass plant response rating (0-100) [19, 28] | Soybean plant response rating (0-100) (soybean (Glycine max) [20]; [28]) | Oat, Wild plant response rating (0 to 100 scale) [24, 29]
100: Corn plant response rating (0 to 100 scale) (corn (Zea mays) [25]; [29])
40: Oat, Wild plant response rating (0-100) [24, 28]
90: Barnyardgrass plant response rating (0 to 100 scale) [19, 29] | Soybean plant response rating (0 to 100 scale) (soybean (Glycine max) [20]; [29]) | Kochia plant response rating (0 to 100 scale) (kochia (Bassia scoparia) [23]; [29]) | Wheat plant response rating (0-100) [26, 28] | Wheat plant response rating (0 to 100 scale) [26, 29]
20: Blackgrass plant response rating (0 to 100 scale) ([3]; 125 g ai/ha) | Oat, Wild plant response rating (0 to 100 scale) ([8]; 125 g ai/ha) | Corn plant response rating (0-100) (corn (Zea mays) [9]; 31 g ai/ha) | Corn plant response rating (0 to 100 scale) (corn (Zea mays) [9]; 125 g ai/ha) | Wheat plant response rating (0-100) ([10]; 31 g ai/ha) | Amaranth, Palmer plant response rating (0-100) [17, 28] | Foxtail, Green plant response rating (0-100) [21, 28]
80: Amaranth, Palmer plant response rating (0 to 100 scale) ([2]; 125 g ai/ha) | Amaranth, Palmer / Pigweed, Palmer plant response rating (0 to 100 scale) [17, 29] | Blackgrass plant response rating (0 to 100 scale) [18, 29] | Foxtail, Green plant response rating (0 to 100 scale) [21, 29] | Galium plant response rating (0 to 100 scale) [22, 29]
50: Ryegrass, Italian plant response rating (0 to 100 scale) ([1]; 125 g ai/ha) | Corn plant response rating (0-100) (corn (Zea mays) [25]; [28]) | Ragweed plant response rating (0 to 100 scale) [27, 29]
30: Foxtail, Green plant response rating (0 to 100 scale) ([6]; 125 g ai/ha) | Horseweed plant response rating (0 to 100 scale) [15, 29]
0: Ryegrass, Italian plant response rating (0-100) ([1]; 31 g ai/ha) | Amaranth, Palmer plant response rating (0-100) ([2]; 31 g ai/ha) | Blackgrass plant response rating (0-100) ([3]; 31 g ai/ha) | Barnyardgrass plant response rating (0-100) ([4]; 31 g ai/ha) | Barnyardgrass plant response rating (0 to 100 scale) ([4]; 125 g ai/ha) | Soybean plant response rating (0-100) (soybean (Glycine max) [5]; 31 g ai/ha) | Foxtail, Green plant response rating (0-100) ([6]; 31 g ai/ha) | Kochia plant response rating (0-100) (kochia (Bassia scoparia) [7]; 31 g ai/ha) | Kochia plant response rating (0 to 100 scale) (kochia (Bassia scoparia) [7]; 125 g ai/ha) | Oat, Wild plant response rating (0-100) ([8]; 31 g ai/ha) | Ragweed plant response rating (0-100) ([11]; 31 g ai/ha) | Ragweed plant response rating (0 to 100 scale) ([11]; 125 g ai/ha) | Plant response rating, Barnyardgrass (0 to 100 scale, 0 is no effect and 100 is complete control) [12] | Plant response rating, Ducksalad (0 to 100 scale, 0 is no effect and 100 is complete control) [13] | Plant response rating, Rice (0 to 100 scale, 0 is no effect and 100 is complete control) (rice (Oryza sativa)) | Plant response rating, Sedge, Umbrella (0 to 100 scale, 0 is no effect and 100 is complete control) [14] | Horseweed plant response rating (0-100) [15, 28] | Ragweed plant response rating (0-100) [27, 28]
10: Soybean plant response rating (0 to 100 scale) (soybean (Glycine max) [5]; 125 g ai/ha)
